In the first assay the test system is subgenomic HCV replicon in Huh-7 cells. As to the kind of experiment: Cell-Based HCV Replication Assay (replicon, NS3 Cell-ELISA). As to conditions: Hepatitis C virus; Huh-7 cells with subgenomic HCV replicon; NS3 expression by Cell-ELISA; 96 hours incubation; read-out: Cell based HCV Replication Assay-IC50. Further details: species or system hepatitis C virus (HCV). From the text:
Another suitable assay is the cellular Replicon or rheplisa assay described as follows:
Cell-Based HCV Replication Assay
Cell clones that stably maintain subgenomic HCV replicon were obtained by transfecting Huh-7 cells with an RNA replicon identical to I377neo/NS3-3′/wt described by V. Lohmann et al., 285 SCIENCE 110 (Jul. 2, 1999) (EMBL-GENBANK No. AJ242652), followed by selection with neomycin sulfate (G418). Viral replication was monitored by measuring the expression of the NS3 protein by an ELISA assay performed directly on cells grown in 96-well microtiter plates (Cell-ELISA) using the anti-NS3 monoclonal antibody 10E5/24 (as described in International Patent Application Publication WO 02/59321). Cells were seeded into 96 well plates at a density of 10^4 cells per well in a final volume of 0.1 ml of DMEM/10% FCS. Two hours after plating, 50 μl of DMEM/10% FCS containing a 3× concentration of inhibitor were added, cells were incubated for 96 hours and then fixed for 10 minutes with ice-cold isopropanol. Each condition was tested in duplicate and average absorbance values were used for calculations. The cells were washed twice with PBS, blocked with 5% non-fat dry milk in PBS+0.1% TRITON X-100+0.02% SDS (PBSTS) and then incubated o/n at 4° C. with the 10E5/24 mab diluted in Milk/PBSTS. After washing 5 times with PBSTS, the cells were incubated for 3 hours at room temperature with Fe-specific anti-mouse IgG conjugated to alkaline phosphatase (Sigma), diluted in Milk/PBSTS. After washing again as above, the reaction was developed with p-nitrophenyl phosphate disodium substrate (Sigma) and the absorbance at 405/620 nm read at intervals. For calculations, we used data sets where samples incubated without inhibitors had absorbance values comprised between 1 and 1.5. The inhibitor concentration that reduced by 50% the expression of NS3 (IC50) was calculated by fitting the data to the Hill equation, Fraction inhibition=1−(Ai−b)/(A0−b)=[I]^n/([I]+IC50) where: • Ai=absorbance value of HBI10 cells supplemented with the indicated inhibitor concentration. • A0=absorbance value of HBI10 cells incubated without inhibitor. • b=absorbance value of Huh-7 cells plated at the same density in the same microtiter plates and incubated without inhibitor. • n=Hill coefficient.
In general terms: In antiviral work, replicon cells carry a viral genome segment that copies itself.
Take `C=C[C@@H]1C[C@]1(NC(=O)[C@@H]1C[C@@H]2CN1C(=O)[C@H](C1CCCC1)NC(=O)N1CC[C@H](C1)OCCC/C=C/c1cc3ccc(OC)cc3nc1O2)C(=O)NS(=O)(=O)C1CC1` [Example 21, (1R,13E,19S,25S,28S)-25-cyclopentyl-N-((1R,2R)-1-{[(cyclopropylsulfonyl)amino]carbonyl}-2-vinylcyclopropyl)-7-methoxy-23,26-dioxo-2,18-dioxa-4,22,24,27-tetraazapentacyclo [25.2.1.1^19,22.0^3,12.0^5,10] hentriaconta-3(12),4,5,7,9,10,13-heptaene-28-carboxamide]: the IC50 (commonly the concentration that gives 50% inhibition) was found to be 20 nM.

`C=C[C@@H]1C[C@]1(NC(=O)[C@@H]1C[C@@H]2CN1C(=O)[C@H](C1CCCC1)NC(=O)N1CC[C@@H](C1)OC/C=C/c1cc3c(cc(OCC)nc3cc1OC)O2)C(=O)NS(=O)(=O)C1CC1` [Example 22, (3R,5S,8S,14S,17E)-8-cyclopentyl-N-((1R,2S)-1-{[(cyclopropylsulfonyl)amino]carbonyl}-2-vinylcyclopropyl)-24-ethoxy-20-methoxy-7,10-dioxo-2,15-dioxa-6,9,11,23-tetraazapentacyclo [17.6.2.1^3,6.1^11,14.0^22,26] nonacosa-1(25),17,19,21,23,26-hexaene-5-carboxamide]: the IC50 was found to be 11 nM.

As to `CCOc1cc2c3cc(c(OC)cc3n1)/C=C/CO[C@H]1CCN(C1)C(=O)N[C@@H](C1CCCC1)C(=O)N1C[C@@H](C[C@H]1C(=O)N[C@]1(C(=O)NS(=O)(=O)C3CC3)C[C@H]1CC)O2` [Example 23, (3R,5S,8S,14S,17E)-8-cyclopentyl-N-((1R,2R)-1-{[(cyclopropylsulfonyl)amino]carbonyl}-2-ethylcyclopropyl)-24-ethoxy-20-methoxy-7,10-dioxo-2,15-dioxa-6,9,11,23-tetraazapentacyclo [17.6.2.1^3,6.1^11,14.0^22,26] nonacosa-1(25),17,19,21,23,26-hexaene-5-carboxamide], the IC50 was 7 nM.

Turning to `C=C[C@@H]1C[C@]1(NC(=O)[C@@H]1C[C@@H]2CN1C(=O)[C@H](C1CCCC1)NC(=O)N1CC[C@H](COCCCc3nc4ccc(OC)cc4cc3O2)C1)C(=O)NS(=O)(=O)C1CC1` [Example 25, (1R,18S,24S,27S)-24-cyclopentyl-N-((1R,2R)-1-{[(cyclopropylsulfonyl)amino]carbonyl}-2-vinylcyclopropyl)-7-methoxy-22,25-dioxo-2,16-dioxa-11,21,23,26-tetraazapentacyclo [24.2.1.1^18,21.0^3,12.0^5,10] triaconta-3(12),4,5,7,9,10-hexaene-27-carboxamide], the IC50 was found to be 7 nM.

With `C=C[C@@H]1C[C@]1(NC(=O)[C@@H]1C[C@@H]2CN1C(=O)[C@H](C1CCCC1)NC(=O)N1CCC[C@@H]1COCCCc1ccc3nc(OCC)nc(c3c1)O2)C(=O)NS(=O)(=O)C1CC1` [Example 28, (6R,8S,11S,17aR)-11-cyclopentyl-N-((1R,2S)-1-{[(cyclopropylsulfonyl)amino]carbonyl}-2-vinylcyclopropyl)-3-ethoxy-10,13-dioxo-7,8,10,11,12,13,16,17,17a,18, 20,21-dodecahydro-6H,15H-1,22-(ethanediylidene)-6,9-methanopyrimido [4,5-n] pyrrolo[2,1-c][1,13,4,6,9] dioxatriazacyclononadecine-8-carboxamide], the IC50 was determined as 6 nM.

Turning to `C=C[C@@H]1C[C@]1(NC(=O)[C@@H]1C[C@@H]2CN1C(=O)[C@H](C1CCCC1)NC(=O)N1CC[C@@H](C1)OC/C=C/Cn1cc(C)c3c4ccccc4nc(c31)O2)C(=O)NS(=O)(=O)C1CC1` [Example 31, (4E,8S,14S,17S,19R)-14-cyclopentyl-N-((1R,2S)-1-{[(cyclopropylsulfonyl)amino]carbonyl}-2-vinylcyclopropyl)-1-methyl-12,15-dioxo-3,6,9,10,12,13,14,15,18,19-decahydro-8H,17H-8,11:16,19-dimethano-7,20-dioxa-2a,11,13,16,21-pentaazabenzo[g] cyclohenicosa[1,2,3-cd]indene-17-carboxamide], the IC50 amounted to 7 nM.

As for `C=C[C@@H]1C[C@]1(NC(=O)[C@@H]1C[C@@H]2CN1C(=O)[C@H](C1CCCC1)CNC(=O)N1CC[C@H](COCCCc3nc4ccc(OC)cc4cc3O2)C1)C(=O)NS(=O)(=O)C1CC1` [Example 33, (1R,18S,24S,27S)-24-cyclopentyl-N-((1R,2R)-1-{[(cyclopropylsulfonyl)amino]carbonyl}-2-vinylcyclopropyl)-7-methoxy-22,25-dioxo-2,16-dioxa-11,21,23,26-tetraazapentacyclo [24.2.1.1^18,21.0^3,12.0^5,10] triaconta-3(12),4,5,7,9,10-hexaene-27-carboxamide], the IC50 is > 100 nM.

For the compound `C=C[C@@H]1C[C@]1(NC(=O)[C@@H]1C[C@@H]2CN1C(=O)[C@H](C1CCCC1)NC(=O)N1CC[C@@H](C1)OCCC/C=C/c1cc3ccccc3cc1O2)C(=O)NS(=O)(=O)C1CC1` [Example 37, (1R,13E,19S,25S,28S)-25-cyclopentyl-N-((1R,2S)-1-{[(cyclopropylsulfonyl)amino]carbonyl}-2-vinylcyclopropyl)-23,26-dioxo-2,18-dioxa-22,24,27-triazapentacyclo [25.2.1.1^19,22.0^3,12.0^5,10] hentriaconta-3(12),4,5,7,9,10,13-heptaene-28-carboxamide], the IC50 came to 4 nM.

Turning to `C=C[C@@H]1C[C@]1(NC(=O)[C@@H]1C[C@@H]2CN1C(=O)[C@H](C1CCCCC1)NC(=O)N1CC(C1)OCCC/C=C/c1cc3c(cc(OCC)nc3cc1OC)O2)C(=O)NS(=O)(=O)C1CC1` [Example 39, (3R,5S,8S,18E)-8-cyclohexyl-N-((1R,2S)-1-{[(cyclopropylsulfonyl)amino]carbonyl}-2-vinylcyclopropyl)-25-ethoxy-21-methoxy-7,10-dioxo-2,14-dioxa-6,9,11,24-tetraazapentacyclo [18.6.2.1^3,6.1^11,13.0^23,27] triaconta-1(26),18,20,22,24,27-hexaene-5-carboxamide], the IC50 was found to be 19 nM.

As to `C=C[C@@H]1C[C@]1(NC(=O)[C@@H]1C[C@@H]2CN1C(=O)[C@H](C1CCCC1)NC(=O)N1CC[C@@H](C1)OCCCc1ccc3nc(OCC)nc(c3c1)O2)C(=O)NS(=O)(=O)C1CC1` [Example 41, (3R,5S,8S,14S)-8-cyclopentyl-N-((1R,2S)-1-{[(cyclopropylsulfonyl)amino]carbonyl}-2-vinylcyclopropyl)-24-ethoxy-7,10-dioxo-2,15-dioxa-6,9,11,23,25-pentaazapentacyclo [17.6.2.1^3,6.1^11,14.0^22,26] nonacosa-1(25),19,21,23,26-pentaene-5-carboxamide], the IC50 was found to be 94 nM.

Staying with this assay, now noted: Hepatitis C virus; Huh-7 replicon cells; NS3 expression by Cell-ELISA; 96 hours; read-out: Cell-based HCV Replication Assay: IC50.
As to `C=C[C@@H]1C[C@]1(NC(=O)[C@@H]1C[C@@H]2CN1C(=O)[C@H](C1CCCCC1)NC(=O)N1CC(C1)OCC/C=C/c1cc3c(cc(OCC)nc3cc1OC)O2)C(=O)NS(=O)(=O)C1CC1` [Example 44, (3R,5S,8S,17E)-8-Cyclohexyl-N-((1R,2S)-1-{[(cyclopropylsulfonyl)amino]carbonyl}-2-vinylcyclopropyl)-24-ethoxy-20-methoxy-7,10-dioxo-2,14-dioxa-6,9,11,23-tetraazapentacyclo[17.6.2.1^3,6.1^11,13.0^22,26]nonacosa-1(25),17,19,21,23,26-hexaene-5-carboxamide], the concentration for half-maximal inhibition (IC50) was found to be 6 nM.

Take `C=C[C@@H]1C[C@]1(NC(=O)[C@@H]1C[C@@H]2CN1C(=O)[C@H](C1CCCCC1)NC(=O)N1CC(C1)OCCCCc1cc3c(cc(OCC)nc3cc1OC)O2)C(=O)NS(=O)(=O)C1CC1` [Example 45, (3R,5S,8S)-8-cyclohexyl-N-((1R,2S)-1-{[(cyclopropylsulfonyl)amino]carbonyl}-2-vinylcyclopropyl)-24-ethoxy-20-methoxy-7,10-dioxo-2,14-dioxa-6,9,11,23-tetraazapentacyclo[17.6.2.1^3,6.1^11,13.0^22,26]nonacosa-1(25),19,21,23,26-pentaene-5-carboxamide]: the 50% inhibitory concentration (IC50) worked out at 6 nM.

The assay is the same for the next values; noted with them: Huh-7 cells with subgenomic HCV replicon; NS3 expression by Cell-ELISA; 96 hours incubation; read-out: Cell based HCV Replication Assay-IC50.
For the compound “(1R,13E,19S,25S,28S)-25- cyclohexyl-N-((1R,2S)-1- {[(cyclopropylsulfonyl)amino] carbonyl}-2- vinylcyclopropyl)-7-methoxy- 23,26-dioxo-2,18-dioxa- 4,22,24,27-tetraazapentacyclo [25.2.1.1^19,22.0^3,12.0^5,10] hentriaconta- 3(12),4,5,7,9,10,13-heptaene- 28-carboxamide [Example 42]”, the IC50 was determined as 3 nM.
